Test results from ChEMBL document CHEMBL1152318, “Antitumor psoropermum xanthones and sarcomelicope acridones: privileged structures implied in DNA alkylation” (J Nat Prod, 2009).
pIC50: −log10 of the molar value.

Key:
[1] = Cytotoxicity against human KB-3-1 cells; type: functional, cell-based
L1210 [2] = experiment: Cytotoxicity against mouse L1210 cells; type: functional, cell-based
P388 [3] = experiment: Antitumor activity against mouse P388 cells xenografted in B6D2F1 mouse assessed as median survival at 50 mg/kg, ip relative to control; type: functional; conditions: route intraperitoneal
MC-38 [4] = experiment: Antitumor activity against […] cells […] in B6D2F1 mouse assessed as tumor growth at 12.5 mg/kg, ip relative to control; type: functional; conditions: route intraperitoneal
L1210 [5] = experiment: Ratio of acronycine IC50 to compound IC50 for mouse L1210 cells; type: functional
L1210 [6] = experiment: Ratio of IC50 for human KB-3-1 cells to IC50 for mouse L1210 cells; type: functional
P388 [7] = experiment: Antitumor activity against mouse P388 cells xenografted in B6D2F1 mouse assessed as median survival at 12.5 mg/kg, ip relative to control; type: functional; conditions: route intraperitoneal
P388 [8] = experiment: Antitumor activity against mouse P388 cells xenografted in B6D2F1 mouse assessed as median survival at 25 mg/kg, ip relative to control; type: functional; conditions: route intraperitoneal
NCI-H460 [9] = experiment: Antitumor activity against human NCI-H460 cells xenografted in BALB/c nude mouse administered twice 6.25 mg/kg, iv relative to control; type: functional
IGROV-1 [10] = experiment: Antitumor activity against human IGROV1 cells xenografted in BALB/c nude mouse administered twice 6.25 mg/kg, iv relative to control; type: functional
OVCAR-3 = experiment: Antitumor activity against human OVCAR-3 cells xenografted in BALB/c nude mouse assessed as increase in survival administered twice by intravenous route; type: functional, cell-based
MC-38 [11] = experiment: Antitumor activity against […] cells […] in B6D2F1 mouse assessed as tumor growth at 6.25 mg/kg, ip relative to control; type: functional; conditions: route intraperitoneal
NCI-H460 [12] = experiment: Antitumor activity against human NCI-H460 cells xenografted in BALB/c nude mouse assessed as increase in survival administered twice by intravenous route; type: functional, cell-based
IGROV-1 [13] = experiment: Antitumor activity against human IGROV1 cells xenografted in BALB/c nude mouse assessed as increase in survival administered twice by intravenous route; type: functional, cell-based
A549 = experiment: Antitumor activity against human A549 cells xenografted in BALB/c nude mouse assessed as increase in survival administered twice by intravenous route; type: functional, cell-based
MC-38 [14] = experiment: Antitumor activity against […] cells […] in B6D2F1 mouse assessed as inhibition of tumor growth at 6.25 mg/kg, ip; type: functional; conditions: MC-38, ip, route intraperitoneal, read-out: TGI
MC-38 [15] = experiment: Antitumor activity against […] cells […] in B6D2F1 mouse assessed as tumor growth at 200 mg/kg, ip relative to control; type: functional; conditions: route intraperitoneal
P388 [16] = experiment: Antitumor activity against mouse P388 cells xenografted in B6D2F1 mouse assessed as median survival at 200 mg/kg, ip relative to control; type: functional; conditions: route intraperitoneal
SGC-7901 = experiment: Cytotoxicity against human SGC7901 cells; type: functional, cell-based
SMMC-7721 = experiment: Cytotoxicity against human SMMC7721 cells; type: functional, cell-based
HCT-116 = experiment: Cytotoxicity against human HCT116 cells; type: functional, cell-based
MCF7 = experiment: Cytotoxicity against human MCF7 cells by MTT assay; type: functional, cell-based
HeLa = experiment: Cytotoxicity against human HeLa cells by MTT assay; type: functional, cell-based; conditions: for pIC50: Homo sapiens, HeLa, read-out: IC50
A-431 = experiment: Cytotoxicity against human A431 cells by MTT assay; type: functional, cell-based; conditions: for pIC50: Homo sapiens, A-431, read-out: IC50
[17] = Cytotoxicity against human 9KB cells; type: functional, cell-based
P388 [18] = experiment: In vivo cytotoxicity against mouse P388 cells at 8 mg/kg relative to control; type: functional

## COc1cc2c(c3c1c(=O)c1cc4ccccc4cc1n3C)C[C@H]([C@@]1(C)CO1)O2
[1]
  pIC50: 8.00
L1210 [2]
  pIC50: 8.00

## COc1cc2c(c3c1c(=O)c1cc4ccccc4cc1n3C)C[C@H]([C@]1(C)CO1)O2
[1]
  pIC50: 8.00
L1210 [2]
  pIC50: 8.00

## COc1cc2c(c3c1c(=O)c1ccccc1n3C)[C@@H](OC(C)=O)[C@@H](OC(=O)c1ccccc1)C(C)(C)O2 (racemic)
P388 [3]
  T/C: 201%
MC-38 [4]
  T/C: 13%
L1210 [5]
  Ratio IC50: 5

## CCC(=O)O[C@@H]1c2c(cc(OC)c3c(=O)c4c5ccccc5ccc4n(C)c23)OC(C)(C)[C@@H]1OC(=O)CC (racemic)
L1210 [6]
  Ratio IC50: 3

## COc1cc2c(c3c1c(=O)c1c4ccccc4ccc1n3C)[C@@H](OC(=O)CC(C)C)[C@@H](OC(=O)CC(C)C)C(C)(C)O2 (racemic)
L1210 [6]
  Ratio IC50: 3

## COc1cc2c(c3c1c(=O)c1cc4ccccc4cc1n3C)[C@@H](OC(=O)CC(C)C)[C@@H](OC(=O)CC(C)C)C(C)(C)O2 (racemic)
L1210 [6]
  Ratio IC50: 3

## COc1cc2c(c3c1c(=O)c1cc4ccccc4cc1n3C)[C@@H](OC(C)=O)[C@@H](OC(=O)CC(C)C)C(C)(C)O2 (racemic)
L1210 [6]
  Ratio IC50: 3

## CCC(=O)O[C@@H]1c2c(cc(OC)c3c(=O)c4cc5ccccc5cc4n(C)c23)OC(C)(C)[C@@H]1OC(=O)CC (racemic)
L1210 [6]
  Ratio IC50: 3

## COc1cc2c(c3c1c(=O)c1c4ccccc4ccc1n3C)[C@@H](OC(C)=O)[C@@H](OC(C)=O)C(C)(C)O2 (racemic)
L1210 [6]
  Ratio IC50: 3

## COc1cc2c(c3c1c(=O)c1c4ccccc4ccc1n3C)[C@@H](OC(C)=O)[C@@H](OC(=O)CC(C)C)C(C)(C)O2 (racemic)
L1210 [6]
  Ratio IC50: 3

## COc1cc2c(c3c1c(=O)c1ccccc1n3C)[C@@H](OC(C)=O)[C@H](OC(C)=O)C(C)(C)O2 (racemic)
P388 [7]
  T/C: 181%

## COc1cc2c(c3c1c(=O)c1ccccc1n3C)[C@@H](OC(C)=O)[C@@H](OC(C)=O)C(C)(C)O2 (racemic)
MC-38 [4]
  T/C: 0%
L1210 [5]
  Ratio IC50: 5
P388 [8]
  T/C: 289%

## COc1cc2c(c3c1c(=O)c1cc4ccccc4cc1n3C)[C@@H](OC(C)=O)[C@@H](OC(C)=O)C(C)(C)O2 (racemic)
NCI-H460 [9]
  T/C: 162%
IGROV-1 [10]
  T/C: 193%
OVCAR-3
  Activity: Dose-dependent effect
P388 [7]
  T/C: 327%
MC-38 [11]
  T/C: 4%
NCI-H460 [12]
  Activity: Dose-dependent effect
IGROV-1 [13]
  Activity: Dose-dependent effect
L1210 [6]
  Ratio IC50: 3
A549
  Activity: Dose-dependent effect
MC-38 [14]
  inhibition in vivo at 6.25 mg/kg: 96%

## COc1cc2c(c3c1c(=O)c1ccccc1n3C)C=CC(C)(C)O2 [ACRONINE]
MC-38 [15]
  T/C: 4%
P388 [16]
  T/C: 125%

## COc1cc2c(c3c1c(=O)c1c4ccccc4ccc1n3C)C=CC(C)(C)O2 [BENZO[A]ACRONYCINE]
L1210 [5]
  Ratio IC50: 4

## COc1cc2c(c3c1c(=O)c1cc4ccccc4cc1n3C)C=CC(C)(C)O2 [BENZO[B]ACRONYCINE]
L1210 [5]
  Ratio IC50: 4

## COc1cc2c(c3c1c(=O)c1ccc4ccccc4c1n3C)C=CC(C)(C)O2 [BENZO[C]ACRONYCINE]
L1210 [2]
  pIC50: 4.92

## C=CC(C)(C)c1c(O)cc(O)c2c(=O)c3c(CC=C(C)C)c(O)c(O)cc3oc12 [CUDRATRICUSXANTHONE A]
SGC-7901
  pIC50: 5.40
SMMC-7721
  pIC50: 5.40
HCT-116
  pIC50: 5.40

## COCC(C)(O)C1Cc2c(cc(O)c3c(=O)c4ccccc4n(C)c23)O1 (centres undefined) [GRAVACRIDONDIOLMONOMETHYL ETHER]
MCF7
  pIC50: 5.52
HeLa
  pIC50: 5.52
A-431
  pIC50: 5.52

## Cn1c2ccccc2c(=O)c2c(O)cc3c(c21)CC(C(C)(O)CO)O3 (centres undefined) [GRAVACRIDONDIOL]
MCF7
  pIC50: 5.52
HeLa
  pIC50: 5.52
A-431
  pIC50: 5.52

## Cn1c2ccccc2c(=O)c2c(O)cc3c(c21)CC(C(O)(CO)CO)O3 (centres undefined) [GRAVACRIDONTRIOL]
HeLa; hela
  IC50: Active
A-431; a-431
  IC50: Active

## COc1cc2c(c3oc4c(O)cccc4c(=O)c13)C[C@H]([C@@]1(C)CO1)O2 [PSOROSPERMIN]
[17]
  pIC50: 6.54
P388 [18]
  T/C: 158%

## C=C(C)[C@H]1Cc2c(cc(O)c3c(=O)c4ccccc4n(C)c23)O1 [RUTACRIDONE]
MCF7
  pIC50: 5.52
HeLa
  pIC50: 5.52
A-431
  pIC50: 5.52
